Source: the NIST ThermoML archive (doi:10.1016/j.tca.2016.04.007)
± gives the expanded uncertainty stated by the source.

Assays:
[1] = Crystal; DTA
[2] = Molar enthalpy of transition or fusion; conditions: Crystal; DSC

Row | Normal melting temperature [1] | Molar enthalpy of transition or fusion [2] | SMILES
1 | 14.20 ± 3 °C | 10.9 ± 0.287 kcal/mol | CCCCCCCCCCCCCCCCBr [1-bromohexadecane]
2 | 23.50 ± 3 °C | 12.9 ± 0.311 kcal/mol | CCCCCCCCCCCCCCCCCCBr [1-bromooctadecane]
